Experimental findings from patent publication US7763648B2, “Oxa-steroids derivatives as selective progesterone receptor modulators” (Janssen Pharmaceutica N.V., priority 2006, dated 2010) are described below.

The test system of assay [1] is T47D human breast cancer cells. In words: T47D Human Breast Cancer Cells Assay (alkaline phosphatase). The conditions noted are these: 24 h with test compound, luminescence. The assay is classed as cell-based. How it is done: T47D Human Breast Cancer Cells Assay
T47D human breast cancer cells were grown in RPMI medium without phenol red (Invitrogen) containing 10% (v/v) heat-inactivated fetal bovine serum (FBS; Hyclone), 1% (v/v) penicillin-streptomycin (Invitrogen), 1% (w/v) glutamine (Invitrogen), and […] insulin (Sigma). Incubation conditions were 37° C. in a humidified 5% (v/v) carbon dioxide environment.
The cells were plated in 96-well tissue culture plates at 10,000 cells per well in assay medium [RPMI medium without phenol red (Invitrogen) containing 5% (v/v) charcoal-treated FBS (Hyclone) and 1% (v/v) penicillin-streptomycin (Invitrogen)]. Two days later, the medium was decanted and test compound or control were added at a final concentration of 0.1% (v/v) dimethyl sulfoxide in fresh assay medium. Twenty-four hours later, an alkaline phosphatase assay was performed using a SEAP kit (BD Biosciences Clontech, Palo Alto, Calif.). Briefly, the medium was decanted and the cells were fixed for 30 minutes at room temperature with 5% (v/v) formalin (Sigma). The cells were washed once with room temperature Hank's buffered saline solution (Invitrogen). Equal volumes (0.05 mL) of 1× Dilution Buffer, Assay Buffer and 1:20 substrate/enhancer mixture were then added. After 1 hour incubation at room temperature in the dark, the lysate was transferred to a white 96-well plate (Dynex) and luminescence was read using a LuminoSkan Ascent (Thermo Electron, Woburn, Mass.).

Assay [2] concerns A549 Human lung carcinoma cells. As to the kind of experiment: A549 Human Lung Cell Assay (transfected, dexamethasone challenge, Luc-assay). The conditions noted are these: Dexamathasone challenge, 24 h. The assay is classed as cell-based. How it is done:
A549 Human Lung Cell Assay
A549 Human lung carcinoma cells were grown in F-12K Nutrient Mixture containing 10% (v/v) fetal bovine serum (FBS; Invitrogen), 2 mM glutamine and 0.15% sodium dicarbonate (Invitrogen).
A549 cells were split 1 to 3 in 175 cm tissue culture flask. The cells were incubated at 37° C. in CO2 incubator until the cells were 95% confluent (typically 24-30 hours).
The following solutions were prepared in sterile tubes: (a) Solution A: 1.5 μg/ml of DNA in 8.5 ml OPTI-MEM I Reduced Serum Medium. (GIBCO cat# 31985) and (b) Solution B: 6 μl/ml of DMRIE-C Reagent into […] OPTI-MEM I. The two solutions were combined and mixed gently, then incubated at room temperature for 40 minutes.
The A549 cells prepared above were washed with […] of OPTI-MEM I. The medium was removed and 17 ml of the lipid-DNA complex solution was overlayed onto cells. The cells ere then incubated for 16 h at 37° C. in CO2 incubator. The DNA-containing medium was removed and 30 ml of growth medium was added. (5% Charcoal treated FBS) After 5-6 h, the cells were seeded in a 96 well plate and the cells incubated overnight at 37° C. in CO2 incubator.
To each well was then added 5 μl of test compounds and the cells incubated at 37° C. for 10 min. 5 μL of Dexamathasone (CAS [50-02-2]), was then added to each well for challenger and the cells incubated at 37° C. in CO2 incubator for 24 h. 100 μl of Luc-assay buffer was then added into each cell well and the cells incubated for 30 min at room temperature. A 150 μL sample from each well was then transferred into a DYNEX Microlitel plate and read on Top-counter.

For orientation: IC50 means the point on the concentration scale where inhibition reaches its midpoint. A low value points to inhibition by little substance.

Some results are limits rather than exact numbers.

Regarding `CN(C)c1ccc(C2C[C@@]3(C)[C@@H](CC[C@@]3(O)C#CC(F)(F)F)[C@@H]3OCC4=CC(=O)CCC4=C23)cc1` (stereo in doubt) [Compound 13, 11-(4-Dimethylamino-phenyl)-17-hydroxy-13-methyl-17-trifluoroprop-1-ynyl-1,2,8,11,12,13,14,15,16,17-decahydro-6H-7-oxa-cyclopenta[a]phenanthren-3-one], the IC50 in assay [1] amounted to 0.0186 µM; in assay [2] it was 0.0555 µM.

As to `CN(C)c1ccc([C@H]2C[C@@]3(C)[C@@H](CC[C@@]3(O)C#Cc3ccccc3F)[C@@H]3OCC4=CC(=O)CCC4=C32)cc1` [Compound 16, 11-(4-Dimethylamino-phenyl)-17-(2-fluoro-phenylethynyl)-17-hydroxy-13-methyl-1,2,8,11,12,13,14,15,16,17-decahydro-6H-7-oxa-cyclopenta[a]phenanthren-3-one], the IC50 in assay [1] is 0.00143 µM; in assay [2] it was 0.0651 µM.

On to `Cc1cccc(C#C[C@]2(O)CC[C@H]3[C@@H]4OCC5=CC(=O)CCC5=C4[C@@H](c4ccc(N(C)C)cc4)C[C@@]32C)c1` [Compound 25, 11-(4-Dimethylamino-phenyl)-17-hydroxy-13-methyl-7-m-tolylethynyl-1,2,8,11,12,13,14,15,16,17-decahydro-6H-7-oxa-cyclopenta[a]phenanthren-3-one], for which the values for the half-maximal inhibitory concentration (IC50) in assay [1] and in assay [2] were 0.00285 µM and 0.0363 µM, respectively.

For `CN(C)c1ccc(C2C[C@@]3(C)[C@@H](CC[C@@]3(O)C#CC(C)(C)O)[C@@H]3OCC4=CC(=O)CCC4=C23)cc1` (stereo in doubt) [Compound 6, 11-(4-Dimethylamino-phenyl)-17-hydroxy-17-(3-hydroxy-3-methyl-but-1-ynyl)-13-methyl-1,2,8,11,12,13,14,15,16,17-decahydro-6H-7-oxa-cyclopenta[a]phenanthren-3-one], the IC50 is greater than 1 µM in assay [1] and 0.559 µM in assay [2].

Regarding `CN(C)c1ccc([C@H]2C[C@@]3(C)[C@@H](CC[C@@]3(O)C#Cc3cccc(C(F)(F)F)c3)[C@@H]3OCC4=CC(=O)CCC4=C32)cc1` [Compound 23, 11-(4-Dimethylamino-phenyl)-17-hydroxy-13-methyl-17-(3-trifluoromethyl-phenylethynyl)-1,2,8,11,12,13,14,15,16,17-decahydro-6H-7-oxa-cyclopenta[a]phenanthren-3-one], the IC50 in assay [1] came out at 0.00265 µM; in assay [2] it was 0.0454 µM.

For the compound `CN(C)c1ccc([C@H]2C[C@@]3(C)[C@@H](CC[C@@]3(O)C#Cc3ccccc3C(F)(F)F)[C@@H]3OCC4=CC(=O)CCC4=C32)cc1` [Compound 22, 11-(4-Dimethylamino-phenyl)-17-hydroxy-13-methyl-17-(2-trifluoromethyl-phenylethynyl)-1,2,8,11,12,13,14,15,16,17-decahydro-6H-7-oxa-cyclopenta[a]phenanthren-3-one], the figures for the IC50 in assay [1] and in assay [2] were 0.00315 µM and 0.051 µM, respectively.

With `CN(C)c1ccc(C2C[C@@]3(C)[C@@H](CC[C@@]3(O)C#Cc3ccccn3)[C@@H]3OCC4=CC(=O)CCC4=C23)cc1` (stereo in doubt) [Compound 26, 11-(4-Dimethylamino-phenyl)-17-hydroxy-13-methyl-17-pyridin-2-ylethynyl-1,2,8,11,12,13,14,15,16,17-decahydro-6H-7-oxa-cyclopenta[a]phenanthren-3-one], the IC50 in assay [1] worked out at 0.034 µM; in assay [2], 0.175 µM.

Turning to `CN(C)c1ccc([C@H]2C[C@@]3(C)[C@@H](CC[C@@]3(O)C#Cc3ccc(Br)cc3)[C@@H]3OCC4=CC(=O)CCC4=C32)cc1` [Compound 11, 17-(4-Bromo-phenylethynyl)-11-(4-dimethylamino-phenyl)-17-hydroxy-13-methyl-1,2,8,11,12,13,14,15,16,17-decahydro-6H-7-oxa-cyclopenta[a]phenanthren-3-one], the results for the IC50 in assay [1] and in assay [2] were 0.000943 µM and 0.0313 µM, respectively.

As to `CC#C[C@]1(O)CC[C@H]2[C@@H]3OCC4=CC(=O)CCC4=C3[C@@H](c3ccc(N(C)C)cc3)C[C@@]21C` [Compound 1, 11-(4-Dimethylamino-phenyl)-17-hydroxy-13-methyl-17-prop-1-ynyl-1,2,8,11,12,13,14,15,16,17-decahydro-6H-7-oxa-cyclopenta[a]phenanthren-3-one], the IC50 in assay [1] was determined as 0.00515 µM; in assay [2], 0.0865 µM.

In the case of `CN(C)c1ccc([C@H]2C[C@@]3(C)[C@@H](CC[C@@]3(O)C#Cc3ccc(C#N)cc3)[C@@H]3OCC4=CC(=O)CCC4=C32)cc1` [Compound 14, 4-[11-(4-Dimethylamino-phenyl)-17-hydroxy-13-methyl-3-oxo-1,2,3,6,8,11,12,13,14,15,16,17-dodecahydro-7-oxa-cyclopenta[a]phenanthren-17-ylethynyl]-benzonitrile], the IC50 in assay [1] came to 0.00367 µM; in assay [2], 0.0413 µM.

With `C#C[C@]1(O)CC[C@H]2[C@@H]3OCC4=CC(=O)CCC4=C3C(c3ccc(N(C)C)cc3)C[C@@]21C` (stereo in doubt) [Compound 4, 11-(4-Dimethylamino-phenyl)-17-ethynyl-17-hydroxy-13-methyl-1,2,8,11,12,13,14,15,16,17-decahydro-6H-7-oxa-cyclopenta[a]phenanthren-3-one], the IC50 came to 0.019 µM in assay [1] and 0.204 µM in assay [2].

Consider `CN(C)c1ccc(C2C[C@@]3(C)[C@@H](CC[C@@]3(O)C#CC(C)(C)C)[C@@H]3OCC4=CC(=O)CCC4=C23)cc1` (stereo in doubt) [Compound 5, 11-(4-Dimethylamino-phenyl)-17-(3,3-dimethyl-but-1-ynyl)-17-hydroxy-13-methyl-1,2,8,11,12,13,14,15,16,17-decahydro-6H-7-oxa-cyclopenta[a]phenanthren-3-one], for which the values for the IC50 in assay [1] and in assay [2] were 0.185 µM and 0.167 µM, respectively.

As for `COCC#C[C@]1(O)CC[C@H]2[C@@H]3OCC4=CC(=O)CCC4=C3C(c3ccc(N(C)C)cc3)C[C@@]21C` (stereo in doubt) [Compound 30, 11-(4-Dimethylamino-phenyl)-17-hydroxy-17-(3-methoxy-prop-1-ynyl)-13-methyl-1,2,8,11,12,13,14,15,16,17-decahydro-6H-7-oxa-cyclopenta[a]phenanthren-3-one], the figures for the IC50 in assay [1] and in assay [2] were 0.6 µM and 0.315 µM, respectively.
